PubChem BioAssay (NCI)
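The compound was tested at five concentrations on cells cultured in 96-well plates, with a 48-hour exposure period. TGI marks complete inhibition of growth.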

Columns and labels:
Test in all cases: NCI-60 cell line screen, 48 h
ACHN renal = system: ACHN renal
SNB-75 CNS = system: SNB-75 CNS
TK-10 renal = system: TK-10 renal
NCI-H226 lung = system: NCI-H226 lung
MDA-MB-435 = system: MDA-MB-435
SF-539 CNS = system: SF-539 CNS
LOX IMVI melanoma = system: LOX IMVI melanoma
OVCAR-8 ovarian = system: OVCAR-8 ovarian
SN12C renal = system: SN12C renal
NCI-H522 lung = system: NCI-H522 lung
UO-31 renal = system: UO-31 renal
A549 NSCLC = system: A549 NSCLC

| Compound | TGI (ACHN renal) | TGI (SNB-75 CNS) | TGI (TK-10 renal) | TGI (NCI-H226 lung) | TGI (MDA-MB-435) | TGI (SF-539 CNS) | TGI (LOX IMVI melanoma) | TGI (OVCAR-8 ovarian) | TGI (SN12C renal) | TGI (NCI-H522 lung) | TGI (UO-31 renal) | TGI (A549 NSCLC) |
| --- | --- | --- | --- | --- | --- | --- | --- | --- | --- | --- | --- | --- |
| O=c1oc2ccccc2n1CCN1CCCCC1 | > 100 µM | > 100 µM | > 100 µM | > 100 µM | > 100 µM | > 100 µM | > 100 µM | > 100 µM | > 100 µM |  |  |  |
| CNC(=O)c1[nH]cnc1/N=N/N(C)N |  | > 100 µM | > 100 µM | > 100 µM | > 100 µM | > 100 µM | > 100 µM | > 100 µM | > 100 µM | > 100 µM | > 100 µM | > 100 µM |
| Cc1nc2c(sc3nc4ccccc4n32)c(=O)[nH]1 | > 100 µM | > 100 µM | > 100 µM | > 100 µM | > 100 µM | > 100 µM | > 100 µM | > 100 µM |  | > 100 µM | > 100 µM | > 100 µM |
| O=C(CSCC(=O)N/N=C\c1ccc(-c2ccccc2)cc1)N/N=C\c1ccc(-c2ccccc2)cc1 | 55.9 µM | 41.6 µM | 64.2 µM | 84.5 µM | 46.1 µM | 37.9 µM | 32.4 µM | 58.2 µM | 53.6 µM | 37.2 µM | > 100 µM | 54.4 µM |
| COC(=O)/C=c1/c2ccccc2n2nc3ccccc3c12 | > 100 µM |  | > 100 µM |  | > 100 µM | > 100 µM | > 100 µM | > 100 µM | > 100 µM | > 100 µM | > 100 µM | > 100 µM |
| COc1ccc(CCNC(=O)Cc2cc(OC)c(OC)cc2CO)cc1OC | > 100 µM | > 100 µM | > 100 µM | > 100 µM | > 100 µM | > 100 µM | > 100 µM | > 100 µM | > 100 µM | > 100 µM | > 100 µM | > 100 µM |
| c1ccc(CSc2nc(N3CCOCC3)c3cn[nH]c3n2)cc1 | 90.9 µM | > 100 µM | 51.6 µM | 73.1 µM | 40 µM | 56.4 µM | 44.1 µM | 89.1 µM | 37.7 µM | 33.1 µM | 38.4 µM | > 100 µM |
| Cc1cccc(NC(=S)Nc2ccccc2Cl)n1 |  | 52.7 µM | > 100 µM | > 100 µM | > 100 µM | > 100 µM | > 100 µM | 73.7 µM | > 100 µM |  | > 100 µM | > 100 µM |
| O=c1[nH]nc(Cc2ccccc2)n1Nc1ccccc1 | > 100 µM | > 100 µM | > 100 µM | > 100 µM | > 100 µM | > 100 µM | > 100 µM | > 100 µM | > 100 µM | > 100 µM | > 100 µM | > 100 µM |
| COC(=O)c1c(C)cccc1CC1Cc2c(C)cccc2C1=O (centres undefined) | > 100 µM | > 100 µM | > 100 µM | 95.8 µM | 65.1 µM | > 100 µM | 33.6 µM | > 100 µM | > 100 µM | 57.8 µM | 71 µM | > 100 µM |
| CC(=O)OCC1=C(C)C(OC(=O)C(OC(C)=O)[C@@H](NC(=O)c2ccccc2)c2ccccc2)CCC1(C)C (some centres undefined) | > 100 µM | > 100 µM | > 100 µM | > 100 µM | > 100 µM | > 100 µM | > 100 µM | > 100 µM | > 100 µM |  | > 100 µM | > 100 µM |
| CC(C)CCn1c(=O)c2c(=O)[nH][nH]c2c2ccccc21 | > 100 µM |  | > 100 µM | > 100 µM | > 100 µM | > 100 µM | > 100 µM | > 100 µM | > 100 µM | > 100 µM | > 100 µM | > 100 µM |
| Cc1c(NC(=S)Nc2ccc(Cl)cc2)c(=O)n(-c2ccccc2)n1C | > 100 µM | > 100 µM | > 100 µM | > 100 µM | > 100 µM | > 100 µM | > 100 µM |  |  | > 100 µM | > 100 µM | > 100 µM |
| CN1CN(c2ccccc2)C2(CCN(CCc3csc4ccccc34)CC2)C1=O |  | 38.5 µM | 34 µM | 39.6 µM | 31.6 µM | 23 µM | 32.8 µM | 51.6 µM | 32.1 µM | 34.4 µM | 14.3 µM | 64.2 µM |
| CC[C@H]1OC([C@H](O)C/C=C\C#C[Si](C)(C)C)C/C=C\C[C@H]1O[Si](C)(C)C(C)(C)C (some centres undefined) | > 100 µM | > 100 µM |  | > 100 µM | > 100 µM |  | 36.3 µM | > 100 µM | > 100 µM | > 100 µM | > 100 µM | > 100 µM |
| COc1cc2c(c(OC)c1OC)-c1ccc(SC)cc1[C@H](OC(=O)c1ccccc1)CC2 | > 100 µM | > 100 µM | > 100 µM | 0.634 µM | > 100 µM | 0.0841 µM | > 100 µM | > 100 µM | > 78.2 µM |  | > 100 µM |  |
| CC(=O)Nc1ccc2[nH]c(-c3cccc(F)c3)cc(=O)c2c1 | > 100 µM |  | > 100 µM | > 75.9 µM | 3.85 µM | 6.92 µM |  | > 31.6 µM | > 100 µM | 20.2 µM | > 82.2 µM | > 100 µM |
| CN(CCc1ccc(N)cc1)[C@H]1CCCC[C@H]1N1CCCC1 | > 100 µM | > 100 µM | > 100 µM | > 100 µM | > 100 µM |  | > 100 µM | > 100 µM | > 100 µM | > 100 µM | > 100 µM | > 100 µM |
| C=CC[C@H]1[C@H](O[Si](C)(C)C(C)(C)C)C=CC(=O)[C@@H]1CC(=O)N(Cc1ccccc1)Cc1ccccc1 | > 100 µM |  | 85.6 µM | 46.7 µM | > 100 µM | > 100 µM | 26.9 µM | > 100 µM | 90.4 µM | > 100 µM | 41.2 µM | > 100 µM |
| COc1ccc(CC2NC(=O)/C=C/CC(C(C)C3OC3c3ccccc3)OC(=O)C(CC(C)C)OC(=O)C(C)CNC2=O)cc1Cl (centres undefined) | > 0.1 µM | > 0.1 µM | > 0.1 µM | 0.000127 µM | 1.58e-05 µM | 4.43e-05 µM | > 0.1 µM | > 0.1 µM | > 0.1 µM | > 0.1 µM |  | > 0.1 µM |
| Cc1nnc2n1-c1ccccc1C(=S)N1CSCC21 (centres undefined) | > 100 µM | > 100 µM | > 100 µM | > 100 µM | > 100 µM |  | > 100 µM | > 100 µM | > 100 µM | > 100 µM | > 100 µM | > 100 µM |
| C[Si](C)(OCCS(=O)(=O)O)C1S(=O)(=O)OCCOS1(=O)=O | > 100 µM | 59.9 µM | > 100 µM | > 100 µM | > 100 µM | > 100 µM | > 100 µM | > 100 µM | > 100 µM | > 100 µM | > 100 µM |  |
| N/C(=N/n1c(=S)[nH]c2ccccc2c1=O)Nn1c(=S)[nH]c2ccccc2c1=O | > 100 µM | > 100 µM | > 100 µM | 79 µM | > 100 µM | 56.2 µM | 46 µM | > 100 µM |  | 30 µM | 27.3 µM | > 100 µM |
| CC1(C)Oc2ccc3c(=O)cc(-c4ccc(F)cc4)oc3c2C1C(=O)O (centres undefined) |  |  | > 100 µM | > 100 µM | > 100 µM | > 100 µM |  | > 100 µM | > 100 µM | > 100 µM |  | > 100 µM |
| COc1ccccc1N1CCN(Cn2c(=O)oc3cccnc32)CC1 | > 100 µM | > 100 µM | > 100 µM |  | > 100 µM | > 100 µM | > 100 µM | > 100 µM |  | > 100 µM | > 100 µM | > 100 µM |
| Cc1cn(Cc2ccccc2CCl)c(=O)[nH]c1=O | 27.1 µM | 30 µM | 33.8 µM |  | 29 µM | 24.6 µM |  | 29.2 µM | 32.7 µM | 23.9 µM | 24.8 µM | 36.6 µM |
| O=C1CCCCc2cccc(O)c21 | > 100 µM | > 100 µM | > 100 µM | > 100 µM | > 100 µM | > 100 µM | > 100 µM | > 100 µM | > 100 µM | > 100 µM | > 100 µM |  |
| C#C[C@]1(O)CC[C@H]2[C@@H]3CCc4cc(OC(=O)c5cccc6cc7ccccc7nc56)ccc4[C@H]3CC[C@@]21C | > 100 µM | > 100 µM |  | > 100 µM | > 100 µM | > 100 µM | 66 µM | > 100 µM | 54.7 µM | 50.5 µM |  | > 100 µM |
| Cc1cc2c(c(C=NCc3ccccc3)c1)OC1(C=C2)Oc2ccccc2C(=O)N1C (centres undefined) | 69.7 µM | 75.8 µM | 79.7 µM | 42.9 µM | 78.4 µM |  | 34.5 µM | 35.6 µM | 78 µM |  | 40.9 µM | > 100 µM |
| C=CC[C@H](C)CCC(=O)N1[C@H]2CC3CC[C@@]2(CS1(=O)=O)C3(C)C | > 100 µM |  | > 100 µM | > 100 µM | > 100 µM |  | 83 µM | > 100 µM | > 100 µM | 99 µM | > 100 µM | > 100 µM |
